Data reported in patent US4614714A (priority 1982, dated 1986).
Entries after “also recorded” stand apart in the source; their conditions may differ. Counter-ions that a name gives are not always drawn. Like-named read-outs stand apart in the source and are kept apart here. Each block holds one molecule with its values, some of them ahead of it.

Key:
[1] = biological target: T1, novel L-glutamic acid oxidase (Streptomyces sp, UniProt Q8L3C7); assay: Effects of various additives on the activity of the novel enzyme; type: biochemical, Streptomyces sp. X-119-6; design: from the cultured product of an actinomycete newly isolated from a soil sample; made in house; host or cells: cultured product of the natural (non-recombinant) actinomycete strain, purified
T1 sequence (Q8L3C7 15-390 limits assumed): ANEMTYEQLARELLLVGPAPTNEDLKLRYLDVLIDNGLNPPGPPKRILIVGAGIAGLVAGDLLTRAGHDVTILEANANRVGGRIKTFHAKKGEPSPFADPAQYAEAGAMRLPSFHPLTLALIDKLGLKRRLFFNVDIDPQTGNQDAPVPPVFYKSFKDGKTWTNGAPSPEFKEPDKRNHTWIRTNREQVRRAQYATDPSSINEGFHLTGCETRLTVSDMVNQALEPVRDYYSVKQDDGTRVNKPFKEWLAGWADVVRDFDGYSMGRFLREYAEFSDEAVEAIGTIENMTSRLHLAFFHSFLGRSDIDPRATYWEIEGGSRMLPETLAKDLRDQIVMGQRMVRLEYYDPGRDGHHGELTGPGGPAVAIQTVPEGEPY
T1 sequence (Q8L3C7 391-520 limits assumed): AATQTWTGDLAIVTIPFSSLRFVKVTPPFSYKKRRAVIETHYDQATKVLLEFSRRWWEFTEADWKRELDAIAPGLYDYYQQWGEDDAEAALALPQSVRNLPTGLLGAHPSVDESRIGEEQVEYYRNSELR
T1 sequence (Q8L3C7 521-701 limits assumed): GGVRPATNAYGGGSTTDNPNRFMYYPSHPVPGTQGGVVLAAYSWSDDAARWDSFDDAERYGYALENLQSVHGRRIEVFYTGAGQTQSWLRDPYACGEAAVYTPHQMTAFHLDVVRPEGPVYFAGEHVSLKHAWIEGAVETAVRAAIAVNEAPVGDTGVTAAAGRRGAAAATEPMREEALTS

[2] = system: lyophilized cell of E. coli, which exhibits L-glutamic acid decarboxylase activity; settings: microorganism electrode, cited from earlier work; for Relative sensitivity ratio: glutamic acid = 100
[3] = system: glutamic acid oxidase (known enzyme); settings: cited from earlier work
[4] = biological target: T1, novel L-glutamic acid oxidase; assay: Substrate specificity of the novel enzyme, oxygen electrode method
Experimental: The concentration of each substrate was 10 mM, and the reactions were carried out at pH 7.4 (0.1 M potassium phosphate buffer) and pH 6.0 (0.1 M acetate buffer).
That is, 1 ml of 0.1 M potassium phosphate buffer (pH 7.4) containing 10 mM sodium L-glutamate was charged into an oxygen electrode cell and 10 μl of an enzyme solution was added thereto to measure the oxygen consumption rate. One unit of enzyme was determined as the amount of enzyme which consumes 1μ mol of oxygen per minute at 30° C. in the absence of catalase (unit: hereinafter abbreviated as "U").

[5] = biological target: T2, immobilized L-glutamic acid oxidase (Streptomyces sp, UniProt Q8L3C7); assay: Responses of the L-glutamic acid sensor of Example C1 to various amino acids; type: biochemical, Streptomyces sp. X-119-6
T2 construct: from the cultured product of an actinomycete newly isolated from a soil sample; made in house; host or cells: cultured product of the natural (non-recombinant) actinomycete strain; immobilized on a Cellophane membrane with glutaraldehyde
T2 sequence (Q8L3C7 15-390 limits assumed): T1 sequence (Q8L3C7 15-390 limits assumed)
T2 sequence (Q8L3C7 391-520 limits assumed): T1 sequence (Q8L3C7 391-520 limits assumed)
T2 sequence (Q8L3C7 521-701 limits assumed): T1 sequence (Q8L3C7 521-701 limits assumed)
Experimental: In FIG. 18, the sample solution 2 injected through inlet 1 is transferred by a peristaltic pump 4 together with oxygen saturated buffer 3 into a cell 5.
The results obtained by the measurement are shown as relative responses. The reaction was carried out in 0.1M of acetic acid-sodium acetate buffer at pH 5.5 and 30° C.

[6] = system: glutamic acid oxidase (known enzyme); settings: cited from earlier work; for activity of the known enzyme: relative to L-glutamic acid; for relative activity of the known enzyme: velocity of enzymatic reaction for L-glutamic acid given as 100
[7] = additive 1 mM, pH 7.4, no addition = 100
[8] = pH 6, read-out: Relative Activity (%) pH 6.0, substrate 10 mM, pH 6.0 (0.1 M acetate buffer), relative to L-glutamic acid
[9] = pH 7.4, read-out: Relative Activity (%) pH 7.4, substrate 10 mM, pH 7.4 (0.1 M potassium phosphate buffer), relative to L-glutamic acid
[10] = pH 5.5; read-out: Relative response (%)
[11] = additive 1 mM, pH 7.4, no addition = 100, read-out: Relative activity
[12] = pH 5.5, read-out: Relative response (%)
[13] = pH 6, read-out: Relative Activity (%) pH 6.0
[14] = pH 7.4, read-out: Relative Activity (%) pH 7.4

Relative activity [1, 7]: 93.8
Molecule: O=S(=O)([O-])[O-].O=S(=O)([O-])[O-].O=S(=O)([O-])[O-].[Al+3].[Al+3] [Al2 (SO4)3]

Molecule: C[C@H](N)C(=O)O [Alanine]
Relative sensitivity ratio [2]: 0.5

Molecule: N=C(N)NCCC[C@H](N)C(=O)O [Arginine]
Relative sensitivity ratio [2]: 0.6

Molecule: N[C@@H](CC(=O)O)C(=O)O [Aspartic acid]
Relative sensitivity ratio [2]: 1.0

Molecule: [Ba+2].[Cl-].[Cl-] [BaCl2]
Relative activity [1, 7]: 95.1

Molecule: [Ca+2].[Cl-].[Cl-] [CaCl2]
Relative activity [1, 7]: 100.0

Molecule: [Cl][Cu][Cl] [CuCl2, cupric chloride]
inhibition of the known enzyme (in words) [3]: completely inhibited | inhibition of the activity of the novel enzyme (in words) ([1]; additive 1 mM, pH 7.4): not inhibited at all

Molecule: N[C@@H](CSSC[C@H](N)C(=O)O)C(=O)O [Cystine]
Relative sensitivity ratio [2]: 0.4

Molecule: N[C@H](CCC(=O)O)C(=O)O [D-Glutamic acid]
activity at 10000 µM [4, 8]: < 0.1% | activity of the novel enzyme (in words) ([4]; pH 7.4): substantially no activity | activity at 10000 µM [4, 9]: < 0.1% | activity at 2000 µM [5, 10]: < 0.1%

activity at 1000 µM [1, 11]: 101%
Molecule: CCN(CC)C(=S)S [DDTC, diethyldithiocarbamate]

Molecule: O=C(O)CN(CCN(CC(=O)O)CC(=O)O)CC(=O)O [EDTA, ethylenediaminetetraacetic acid]
activity at 1000 µM ([1]; pH 7.4, read-out: Relative activity): 96.5%

Molecule: N[C@@H](CCC(=O)O)C(=O)O [Glutamic acid]
Relative sensitivity ratio [2]: 100

Molecule: NC(=O)CC[C@H](N)C(=O)O [Glutamine]
Relative sensitivity ratio, acetone treated cell ([2]; acetone treated cell was employed): 11 | Relative sensitivity ratio [2]: 108

Molecule: NCC(=O)O [Glycine]
activity at 10000 µM [4, 8]: < 0.1% | activity at 10000 µM [4, 9]: < 0.1% | activity at 2000 µM [5, 12]: < 0.1% | Relative sensitivity ratio [2]: 0.4

Molecule: [Cl-].[K+] [KCl]
Relative activity [1, 7]: 111.1

Relative activity [1, 7]: 100.7
Molecule: [I-].[K+] [KI]

Molecule: C[C@H](N)C(=O)O [L-Alanine]
activity at 10000 µM [4, 8]: < 0.1% | activity at 10000 µM [4, 9]: < 0.1% | activity at 2000 µM [5, 12]: < 0.1%

Molecule: N=C(N)NCCC[C@H](N)C(=O)O [L-Arginine]
activity at 10000 µM [4, 8]: < 0.1% | activity at 10000 µM [4, 9]: < 0.1% | activity at 2000 µM [5, 12]: < 0.1%

activity at 10000 µM [4, 13]: < 0.1% | activity at 10000 µM [4, 14]: < 0.1% | activity at 2000 µM [5, 10]: < 1%
Molecule: NC(=O)C[C@H](N)C(=O)O [L-Asparagine]

Molecule: N[C@@H](CC(=O)O)C(=O)O [L-Aspartic acid]
activity of the novel enzyme (in words) ([4]; pH 6.0): substantially no activity; also recorded: substantially no action | activity at 10000 µM [4, 8]: < 0.1% | activity at 10000 µM [4, 9]: 0.6% | Relative Activity (%) pH 6.0 ([4]; substrate 10 mM, pH 6.0 (0.1 M acetate buffer), relative to L-glutamic acid): ≤ 0.1% | activity at 2000 µM [5, 12]: < 1% | activity of the known enzyme [6]: ≤ 0.1%

Molecule: N[C@@H](CS)C(=O)O [L-Cysteine]
activity at 10000 µM [4, 8]: < 0.1% | activity at 10000 µM [4, 9]: < 0.1% | activity at 2000 µM [5, 12]: < 0.1%

activity at 10000 µM [4, 13]: 100% | activity at 10000 µM [4, 14]: 100% | activity at 2000 µM [5, 10]: 100%
Molecule: N[C@@H](CCC(=O)O)C(=O)O [L-Glutamic acid]

Molecule: NC(=O)CC[C@H](N)C(=O)O [L-Glutamine]
activity at 10000 µM [4, 8]: < 0.1% | activity of the novel enzyme (in words) ([4]; pH 7.4): substantially no activity | activity at 10000 µM [4, 9]: < 0.1% | activity at 2000 µM [5, 12]: < 2% | activity of the known enzyme [6]: 8.4% | relative activity of the known enzyme [6]: 8.4

activity at 10000 µM [4, 13]: < 0.1% | activity of the novel enzyme (in words) ([4]; pH 7.4): substantially no activity | activity at 10000 µM [4, 14]: < 0.1% | activity at 2000 µM [5, 10]: < 0.1%
Molecule: N[C@@H](Cc1c[nH]cn1)C(=O)O [L-Histidine]
activity of the known enzyme [6]: 6.8% | relative activity of the known enzyme [6]: 6.8

Molecule: CC[C@H](C)[C@H](N)C(=O)O [L-Isoleucine]
activity at 10000 µM [4, 8]: < 0.1% | activity at 10000 µM [4, 9]: < 0.1% | activity at 2000 µM [5, 12]: < 0.1%

Molecule: CC(C)C[C@H](N)C(=O)O [L-Leucine]
activity at 10000 µM [4, 8]: < 0.1% | activity at 10000 µM [4, 9]: < 0.1% | activity at 2000 µM [5, 12]: < 0.1%

Molecule: NCCCC[C@H](N)C(=O)O [L-Lysine]
activity at 10000 µM [4, 8]: < 0.1% | activity at 10000 µM [4, 9]: < 0.1% | activity at 2000 µM [5, 12]: < 0.1%

Molecule: CSCC[C@H](N)C(=O)O [L-Methionine]
activity at 10000 µM [4, 8]: < 0.1% | activity at 10000 µM [4, 9]: < 0.1% | activity at 2000 µM [5, 12]: < 0.1%

Molecule: NCCC[C@H](N)C(=O)O [L-Ornithine]
activity at 10000 µM [4, 8]: < 0.1% | activity at 10000 µM [4, 9]: < 0.1% | activity at 2000 µM [5, 12]: < 0.1%

activity at 10000 µM [4, 13]: < 0.1% | activity at 10000 µM [4, 14]: < 0.1% | activity at 2000 µM [5, 10]: < 0.1%
Molecule: N[C@@H](Cc1ccccc1)C(=O)O [L-Phenylalanine]

Molecule: O=C(O)[C@@H]1CCCN1 [L-Proline]
activity at 10000 µM [4, 8]: < 0.1% | activity at 10000 µM [4, 9]: < 0.1% | activity at 2000 µM [5, 12]: < 0.1%

Molecule: N[C@@H](CO)C(=O)O [L-Serine]
activity at 10000 µM [4, 8]: < 0.1% | activity at 2000 µM [5, 12]: < 0.1%

activity at 10000 µM [4, 13]: < 0.1% | activity at 10000 µM [4, 14]: < 0.1% | activity at 2000 µM [5, 10]: < 0.1%
Molecule: C[C@@H](O)[C@H](N)C(=O)O [L-Threonine]

Molecule: N[C@@H](Cc1c[nH]c2ccccc12)C(=O)O [L-Tryptophan]
activity at 2000 µM [5, 12]: < 0.1%

Molecule: N[C@@H](Cc1ccc(O)cc1)C(=O)O [L-Tyrosine]
activity at 10000 µM [4, 8]: < 0.1% | activity at 10000 µM [4, 9]: < 0.1%

Molecule: CC(C)[C@H](N)C(=O)O [L-Valine]
activity at 10000 µM [4, 8]: < 0.1% | activity at 10000 µM [4, 9]: < 0.1% | activity at 2000 µM [5, 12]: < 0.1%

Relative activity [1, 7]: 93.8
Molecule: O=S(=O)([O-])[O-].[Li+].[Li+] [Li2 SO4]

Relative activity [1, 7]: 102.1
Molecule: O=S(=O)([O-])[O-].[Mn+2] [MnSO4]

Molecule: CCN1C(=O)C=CC1=O [NEM, N--ethylmaleimide]
activity at 1000 µM [1, 11]: 94.4%

Molecule: [Cl-].[Na+] [NaCl]
Relative activity ([1]; l-glutamic acid oxidase, pH 7.4, 1000 µM): 95.8

Relative activity [1, 7]: 107.6
Molecule: [F-].[Na+] [NaF]

Molecule: [N-]=[N+]=[N-].[Na+] [NaN3]
Relative activity [1, 7]: 100.6

Molecule: [Cl][Ni][Cl] [NiCl2]
Relative activity [1, 7]: 96.5

Molecule: O=C(O)c1cc[c]([Hg][Cl])cc1 [PCMB, pchloromercuribenzoate]
inhibition of the activity of the novel enzyme ([1]; additive 1 mM, pH 7.4): about 45% | Relative activity [1, 7]: 55.6

Relative activity [1, 7]: 97.2
Molecule: [Cl-].[Cl-].[Sr+2] [StCl2]

Molecule: O=S(=O)(O)c1cc(O)c(O)c(S(=O)(=O)O)c1 [Tiron, 4,5dihydroxy-1,3-benzenedisulfonic acid disodium salt]
activity at 1000 µM [1, 11]: 101%

Molecule: N[C@@H](Cc1c[nH]c2ccccc12)C(=O)O [Tryptophan]
Relative sensitivity ratio [2]: 0.4

Relative activity [1, 7]: 90.3
Molecule: O=S(=O)([O-])[O-].[Zn+2] [ZnSO4]

Molecule: [Cu+] [copper ions]
inhibition of the known enzyme (in words) [3]: Substantially completely inhibited; also recorded: markedly inhibited

activity at 1000 µM [1, 11]: 97.8%
Molecule: c1cnc2c(c1)ccc1cccnc12 [o-phenanthroline]

Molecule: c1ccc(-c2ccccn2)nc1 [α,α'-dipyridyl]
activity at 1000 µM [1, 11]: 94.4%

Molecule: mercury ions
inhibition of the known enzyme (in words) [3]: Substantially completely inhibited
